# Like-named read-outs stand apart in the source and are kept apart here.
# Legend:
# sedge, umbrella = test: Test B flooded paddy test; format: in vivo, Cyperus difformis; conditions: 250 g ai/ha, Flood; scale of 0 to 100 where 0 is no effect and 100 is complete control
# Method in brief: (§1)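 Scored visually 0–100 (0 no effect, 100 complete control) versus controls after 13 to 15 greenhouse days. Treatment: compound added to paddy water kept 3 cm above soil, on 2-leaf-stage plants.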
# barnyardgrass [1] = test: Test A pre-/postemergence herbicide test; format: in vivo, Echinochloa crus-galli; conditions: for pest or weed control at 500 g/ha: 500 g ai/ha; for Plant response rating, Barnyardgrass: 1000 g ai/ha
# Method in brief: (§2)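 Seeds sown in loam soil/sand blend received a preemergence directed soil spray of test chemical in non-phytotoxic solvent with surfactant; postemergence plants (2–10 cm, one- to two-leaf stage) were sprayed with the same formulation. After about 10 days in greenhouse, injury was rated visually versus untreated controls, 0 (no effect) to 100 (complete control).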
# wheat = test: Test A pre-/postemergence herbicide test; format: in vivo, Triticum aestivum; conditions: for plant injury at 500 g/ha: 500 g ai/ha; for Plant response rating, Wheat: 1000 g ai/ha
# Method in brief: as §2
# corn = test: Test A pre-/postemergence herbicide test; format: in vivo, Zea mays; conditions: for Corn plant response rating (crop injury, 0 = no effect, 100 = complete kill) at 500 g/ha: 500 g ai/ha; for Plant response rating, Corn: 1000 g ai/ha
# Method in brief: as §2
# morningglory = test: Test A pre-/postemergence herbicide test; format: in vivo, Ipomoea spp.; conditions: for pest or weed control at 500 g/ha: 500 g ai/ha
# Method in brief: as §2
# giant foxtail = test: Test A pre-/postemergence herbicide test; format: in vivo, Setaria faberii; conditions: for pest or weed control at 500 g/ha: 500 g ai/ha; for Plant response rating, Foxtail, Giant: 1000 g ai/ha
# Method in brief: as §2
# barnyardgrass [2] = test: Test B flooded paddy test; format: in vivo, Echinochloa crus-galli; conditions: 250 g ai/ha, Flood; scale of 0 to 100 where 0 is no effect and 100 is complete control
# Method in brief: as §1
# pigweed = test: Test A pre-/postemergence herbicide test; format: in vivo, Amaranthus retroflexus; conditions: for pest or weed control at 500 g/ha: 500 g ai/ha; for Plant response rating, Pigweed: 1000 g ai/ha
# Method in brief: as §2
# velvetleaf = test: Test A pre-/postemergence herbicide test; format: in vivo, Abutilon theophrasti; conditions: for pest or weed control at 500 g/ha: 500 g ai/ha; for Plant response rating, Velvetleaf: 1000 g ai/ha
# Method in brief: as §2
# rice = test: Test B flooded paddy test; format: in vivo, Oryza sativa; conditions: 250 g ai/ha, Flood; scale of 0 to 100 where 0 is no effect and 100 is complete control
# Method in brief: as §1
# ducksalad = test: Test B flooded paddy test; format: in vivo, Heteranthera limosa; conditions: 250 g ai/ha, Flood; scale of 0 to 100 where 0 is no effect and 100 is complete control
# Method in brief: as §1
# crabgrass, large = test: Test A pre-/postemergence herbicide test; format: in vivo, Digitaria sanguinalis; conditions: for pest or weed control at 500 g/ha: 500 g ai/ha; for Plant response rating, Crabgrass, Large: 1000 g ai/ha
# Method in brief: as §2
# [3] = Preemergence, 125 g ai/ha, visual rating on 0 to 100 scale (0 no effect, 100 complete control)
# [4] = Postemergence, 0 to 100 scale (0 no effect, 100 complete control)
# [5] = Preemergence, visual rating on 0 to 100 scale (0 no effect, 100 complete control), approx. 10 days
compound,measurement,setting,value
"O=C1NCC(c2ccc(F)c(Cl)c2)C1C(=O)Nc1ccccc1C(F)(F)F (stereo not shown) [Compound 74, 4-(3-chloro-4-fluorophenyl)-2-oxo-N-[2-(trifluoromethyl)phenyl]-3-pyrrolidinecarboxamide]","Plant response rating, Sedge, Umbrella","sedge, umbrella",0
same,pest or weed control at 125 g/ha,"barnyardgrass [1]; Echinochloa crus-galli, post-emergence, 240 h, Postemergence, 125 g ai/ha, 0 to 100 scale, 0 no effect, 100 complete control, read-out: Plant response rating, Barnyardgrass",60%
same,pest or weed control at 500 g/ha,"barnyardgrass [1]; Echinochloa crus-galli, post-emergence, 240 h, Postemergence, 0 to 100 scale (0 no effect, 100 complete control), read-out: Plant response rating, Barnyardgrass",80%
same,pest or weed control at 500 g/ha,"barnyardgrass [1]; Echinochloa crus-galli, pre-emergence, 240 h, preemergence, 0 to 100 scale (0 no effect, 100 complete control), read-out: Plant response rating, Barnyardgrass",90%
same,Barnyardgrass plant response rating,barnyardgrass [1]; [3],60
same,Wheat plant response rating,wheat; [3],0
same,plant injury at 125 g/ha,"wheat; Triticum aestivum, post-emergence, 240 h, Postemergence, 125 g ai/ha, 0 to 100 scale, 0 no effect, 100 complete control, read-out: Plant response rating, Wheat",0%
same,plant injury at 500 g/ha,"wheat; Triticum aestivum, post-emergence, 240 h, Postemergence, 0 to 100 scale (0 no effect, 100 complete control), read-out: Plant response rating, Wheat",60%
same,plant injury at 500 g/ha,"wheat; Triticum aestivum, pre-emergence, 240 h, preemergence, 0 to 100 scale, read-out: Plant response rating, Wheat",0%
same,Corn plant response rating,corn; [3],0
same,"Corn plant response rating (crop injury, 0 = no effect, 100 = complete kill) at 125 g/ha","corn; Zea mays, post-emergence, 240 h, Postemergence, 125 g ai/ha, 0 to 100 scale, 0 no effect, 100 complete control",0%
same,"Corn plant response rating (crop injury, 0 = no effect, 100 = complete kill) at 500 g/ha","corn; Zea mays, post-emergence, 240 h, Postemergence, 0 to 100 scale (0 no effect, 100 complete control)",50%
same,"Corn plant response rating (crop injury, 0 = no effect, 100 = complete kill) at 500 g/ha","corn; Zea mays, pre-emergence, 240 h, preemergence, 0 to 100 scale",0%
same,pest or weed control at 125 g/ha,"morningglory; Ipomoea, post-emergence, 240 h, Postemergence, 125 g ai/ha, 0 to 100 scale, 0 no effect, 100 complete control, read-out: Plant response rating, Morningglory",0%
same,pest or weed control at 500 g/ha,"morningglory; Ipomoea, post-emergence, 240 h, Postemergence, 0 to 100 scale (0 no effect, 100 complete control), read-out: Plant response rating, Morningglory",0%
same,pest or weed control at 500 g/ha,"morningglory; Ipomoea, pre-emergence, 240 h, preemergence, 0 to 100 scale, read-out: Plant response rating, Morningglory",0%
same,Morningglory plant response rating,morningglory; [3],0
same,"Foxtail, Giant plant response rating",giant foxtail; [3],90
same,pest or weed control at 125 g/ha,"giant foxtail; Setaria faberi, post-emergence, 240 h, Postemergence, 125 g ai/ha, 0 to 100 scale, 0 no effect, 100 complete control, read-out: Plant response rating, Foxtail, Giant",80%
same,pest or weed control at 500 g/ha,"giant foxtail; Setaria faberi, post-emergence, 240 h, Postemergence, 0 to 100 scale (0 no effect, 100 complete control), read-out: Plant response rating, Foxtail, Giant",90%
same,pest or weed control at 500 g/ha,"giant foxtail; Setaria faberi, pre-emergence, 240 h, preemergence, 0 to 100 scale, read-out: Plant response rating, Foxtail, Giant",90%
same,"Plant response rating, Barnyardgrass",barnyardgrass [2],0
same,pest or weed control at 125 g/ha,"pigweed; Amaranthus retroflexus, post-emergence, 240 h, Postemergence, 125 g ai/ha, 0 to 100 scale, 0 no effect, 100 complete control, read-out: Plant response rating, Pigweed",0%
same,pest or weed control at 500 g/ha,"pigweed; Amaranthus retroflexus, post-emergence, 240 h, Postemergence, 0 to 100 scale (0 no effect, 100 complete control), read-out: Plant response rating, Pigweed",0%
same,pest or weed control at 500 g/ha,"pigweed; Amaranthus retroflexus, pre-emergence, 240 h, preemergence, 0 to 100 scale, read-out: Plant response rating, Pigweed",50%
same,Pigweed plant response rating,pigweed; [3],0
same,pest or weed control at 125 g/ha,"velvetleaf; Abutilon theophrasti, post-emergence, 240 h, Postemergence, 125 g ai/ha, 0 to 100 scale, 0 no effect, 100 complete control, read-out: Plant response rating, Velvetleaf",30%
same,pest or weed control at 500 g/ha,"velvetleaf; Abutilon theophrasti, post-emergence, 240 h, Postemergence, 0 to 100 scale (0 no effect, 100 complete control), read-out: Plant response rating, Velvetleaf",50%
same,pest or weed control at 500 g/ha,"velvetleaf; Abutilon theophrasti, pre-emergence, 240 h, preemergence, 0 to 100 scale, read-out: Plant response rating, Velvetleaf",0%
same,Velvetleaf plant response rating,velvetleaf; [3],0
same,"Plant response rating, Rice",rice,0
same,"Plant response rating, Ducksalad",ducksalad,90
same,pest or weed control at 125 g/ha,"crabgrass, large; Digitaria sanguinalis, post-emergence, 240 h, Postemergence, 125 g ai/ha, 0 to 100 scale, 0 no effect, 100 complete control, read-out: Plant response rating, Crabgrass, Large",80%
same,pest or weed control at 500 g/ha,"crabgrass, large; Digitaria sanguinalis, post-emergence, 240 h, Postemergence, 0 to 100 scale (0 no effect, 100 complete control), read-out: Plant response rating, Crabgrass, Large",90%
same,pest or weed control at 500 g/ha,"crabgrass, large; Digitaria sanguinalis, pre-emergence, 240 h, preemergence, 0 to 100 scale, read-out: Plant response rating, Crabgrass, Large",90%
same,"Crabgrass, Large plant response rating","crabgrass, large; [3]",90
Cn1ccc(NC(=O)C2C(=O)NCC2c2ccc(F)c(F)c2)n1 (stereo not shown) [Compound 31],"Plant response rating, Sedge, Umbrella","sedge, umbrella",0
same,"Plant response rating, Barnyardgrass",barnyardgrass [1]; [4],60
same,"Plant response rating, Barnyardgrass",barnyardgrass [1]; [5],50
same,"Plant response rating, Wheat",wheat; [4],0
same,"Plant response rating, Wheat",wheat; [5],50
same,"Plant response rating, Corn",corn; [4],30
same,"Plant response rating, Corn",corn; [5],20
same,"Plant response rating, Morningglory","morningglory; Postemergence, 1000 g ai/ha, 0 to 100 scale (0 no effect, 100 complete control)",0
same,"Plant response rating, Foxtail, Giant",giant foxtail; [4],20
same,"Plant response rating, Foxtail, Giant",giant foxtail; [5],80
same,"Plant response rating, Barnyardgrass",barnyardgrass [2],0
same,"Plant response rating, Pigweed",pigweed; [4],0
same,"Plant response rating, Pigweed",pigweed; [5],0
same,"Plant response rating, Velvetleaf",velvetleaf; [4],0
same,"Plant response rating, Velvetleaf",velvetleaf; [5],0
same,"Plant response rating, Rice",rice,0
same,"Plant response rating, Ducksalad",ducksalad,0
same,"Plant response rating, Crabgrass, Large","crabgrass, large; [4]",20
same,"Plant response rating, Crabgrass, Large","crabgrass, large; [5]",80
